# Like-named read-outs stand apart in the source and are kept apart here.
# Experiments:
# Type in all cases: in vivo
# [1] = test system: morningglory (Ipomoea spp.); test: Test B pre-/postemergence plant response; conditions: for pest or weed control at 1000 g/ha: Ipomoea, 240 h, 1000 g ai/ha, read-out: Plant response rating, Morningglory
# Summary of the method: (§1)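 Scoring used a 0–100 scale (100 = complete control) by visual comparison with untreated plants after approximately 10 days in the greenhouse. Compounds, in surfactant-containing non-phytotoxic solvent, were sprayed onto soil at planting or onto 2–10 cm seedlings.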
# [2] = test system: pigweed (Amaranthus retroflexus); test: Test B pre-/postemergence plant response; conditions: for pest or weed control at 1000 g/ha: Amaranthus retroflexus, 240 h, 1000 g ai/ha, read-out: Plant response rating, Pigweed
# Summary of the method: as §1
# [3] = test system: velvetleaf (Abutilon theophrasti); test: Test B pre-/postemergence plant response; conditions: for pest or weed control at 1000 g/ha: Abutilon theophrasti, 240 h, 1000 g ai/ha, read-out: Plant response rating, Velvetleaf
# Summary of the method: as §1
# corn (Zea mays) = test: Test B pre-/postemergence plant response; conditions: for Corn plant response rating (crop injury, 0 = no effect, 100 = complete kill) at 1000 g/ha: Zea mays, 240 h, 1000 g ai/ha
# Summary of the method: as §1
# [4] = test system: barnyardgrass (Echinochloa crus-galli); test: Test B pre-/postemergence plant response; conditions: for pest or weed control at 1000 g/ha: Echinochloa crus-galli, 240 h, 1000 g ai/ha, read-out: Plant response rating, Barnyardgrass
# Summary of the method: as §1
# [5] = test system: large (Lg) crabgrass (Digitaria sanguinalis); test: Test B pre-/postemergence plant response; conditions: for pest or weed control at 1000 g/ha: Digitaria sanguinalis, 240 h, 1000 g ai/ha, read-out: Plant response rating, Crabgrass, Large
# Summary of the method: as §1
# [6] = test system: wheat (Triticum aestivum); test: Test B pre-/postemergence plant response; conditions: for plant injury at 1000 g/ha: Triticum aestivum, 240 h, 1000 g ai/ha, read-out: Plant response rating, Wheat
# Summary of the method: as §1
# [7] = test system: giant foxtail (Setaria faberii); test: Test B pre-/postemergence plant response; conditions: for pest or weed control at 1000 g/ha: Setaria faberi, 240 h, 1000 g ai/ha, read-out: Plant response rating, Foxtail, Giant
# Summary of the method: as §1
# [8] = test system: small-flower umbrella sedge (Cyperus difformis); test: Test C flooded paddy test plant response; conditions: Flood, 250 g ai/ha, scale of 0 to 100 where 0 is no effect and 100 is complete control, 13 to 15 days
# Summary of the method: (§2)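 Two-leaf stage → flood to 3 cm → compound into water → hold depth, greenhouse 13–15 d → visual score vs controls (0 none, 100 complete control).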
# [9] = test system: ducksalad (Heteranthera limosa); test: Test C flooded paddy test plant response; conditions: Flood, 250 g ai/ha, scale of 0 to 100 where 0 is no effect and 100 is complete control, 13 to 15 days
# Summary of the method: as §2
# [10] = test system: barnyardgrass (Echinochloa crus-galli); test: Test C flooded paddy test plant response; conditions: Flood, 250 g ai/ha, scale of 0 to 100 where 0 is no effect and 100 is complete control, 13 to 15 days
# Summary of the method: as §2
# rice (Oryza sativa) = test: Test C flooded paddy test plant response; conditions: Flood, 250 g ai/ha, scale of 0 to 100 where 0 is no effect and 100 is complete control, 13 to 15 days
# Summary of the method: as §2
# [11] = 125 g ai/ha, postemergence, 0 to 100 scale, 0 no effect, 100 complete control
# [12] = 500 g ai/ha, postemergence, 0 to 100 scale, 0 no effect, 100 complete control
# [13] = Preemergence, 125 g ai/ha, 0 to 100 scale (0 no effect, 100 complete control)
# [14] = Preemergence, 500 g ai/ha, 0 to 100 scale where 0 is no effect and 100 is complete control
# [15] = Postemergence, 500 g ai/ha, 0 to 100 scale (0 no effect, 100 complete control)
# [16] = Preemergence, 125 g ai/ha, 0 to 100 scale where 0 is no effect and 100 is complete control
# [17] = post-emergence, Postemergence, 0 to 100 scale (0 no effect, 100 complete control)
# [18] = pre-emergence, Preemergence, 0 to 100 scale (0 no effect, 100 complete control)
# [19] = Preemergence, 500 g ai/ha, 0 to 100 scale (0 no effect, 100 complete control)
structure (smiles),measurement,setting,value
N#Cc1cccc(Oc2ncc(Cl)cn2)c1-c1ccc(Cl)cn1 [Compound 202],"Plant response rating, Morningglory",[1]; [11],10
same,"Plant response rating, Morningglory",[1]; [12],40
same,Morningglory plant response rating,[1]; [13],0
same,"Plant response rating, Morningglory",[1]; [14],20
same,"Plant response rating, Pigweed",[2]; [11],90
same,"Plant response rating, Pigweed",[2]; [12],100
same,Pigweed plant response rating,[2]; [13],100
same,"Plant response rating, Pigweed",[2]; [14],100
same,"Plant response rating, Velvetleaf",[3]; [11],10
same,"Plant response rating, Velvetleaf",[3]; [12],30
same,Velvetleaf plant response rating,[3]; [13],0
same,"Plant response rating, Velvetleaf",[3]; [14],60
same,"Plant response rating, Corn",corn (Zea mays); [11],0
same,"Plant response rating, Corn",corn (Zea mays); [12],30
same,Corn plant response rating,corn (Zea mays); [13],0
same,"Plant response rating, Corn",corn (Zea mays); [14],0
same,"Plant response rating, Barnyardgrass",[4]; [11],10
same,"Plant response rating, Barnyardgrass",[4]; [12],40
same,Barnyardgrass plant response rating,[4]; [13],10
same,"Plant response rating, Barnyardgrass",[4]; [14],80
same,"Plant response rating, Crabgrass, Large",[5]; [11],10
same,"Plant response rating, Crabgrass, Large",[5]; [12],70
same,"Crabgrass, Large plant response rating",[5]; [13],90
same,"Plant response rating, Crabgrass, Large",[5]; [14],100
same,"Plant response rating, Wheat",[6]; [11],0
same,"Plant response rating, Wheat",[6]; [12],0
same,Wheat plant response rating,[6]; [13],0
same,"Plant response rating, Wheat",[6]; [14],20
same,"Plant response rating, Foxtail, Giant",[7]; [11],30
same,"Plant response rating, Foxtail, Giant",[7]; [12],80
same,"Foxtail, Giant plant response rating",[7]; [13],70
same,"Plant response rating, Foxtail, Giant",[7]; [14],100
same,"Sedge, Umbrella plant response rating",[8],80
same,Ducksalad plant response rating,[9],80
same,Barnyardgrass plant response rating,[10],0
same,Rice plant response rating,rice (Oryza sativa),0
FC(F)(F)c1ccc(-c2ccccc2Oc2ncc(Cl)cn2)cc1 [Compound 43],"Plant response rating, Morningglory",[1]; [11],0
same,"Plant response rating, Morningglory",[1]; [15],20
same,"Plant response rating, Morningglory",[1]; [16],0
same,"Plant response rating, Morningglory",[1]; [14],10
same,"Plant response rating, Pigweed",[2]; [11],30
same,"Plant response rating, Pigweed",[2]; [15],70
same,"Plant response rating, Pigweed",[2]; [16],0
same,"Plant response rating, Pigweed",[2]; [14],0
same,"Plant response rating, Velvetleaf",[3]; [11],20
same,"Plant response rating, Velvetleaf",[3]; [15],70
same,"Plant response rating, Velvetleaf",[3]; [16],0
same,"Plant response rating, Velvetleaf",[3]; [14],10
same,"Plant response rating, Corn",corn (Zea mays); [11],0
same,"Plant response rating, Corn",corn (Zea mays); [15],10
same,"Plant response rating, Corn",corn (Zea mays); [16],0
same,"Plant response rating, Corn",corn (Zea mays); [14],0
same,"Plant response rating, Barnyardgrass",[4]; [11],0
same,"Plant response rating, Barnyardgrass",[4]; [15],20
same,"Plant response rating, Barnyardgrass",[4]; [16],0
same,"Plant response rating, Barnyardgrass",[4]; [14],20
same,"Plant response rating, Crabgrass, Large",[5]; [11],0
same,"Plant response rating, Crabgrass, Large",[5]; [15],20
same,"Plant response rating, Crabgrass, Large",[5]; [16],0
same,"Plant response rating, Crabgrass, Large",[5]; [14],30
same,"Plant response rating, Wheat",[6]; [11],0
same,"Plant response rating, Wheat",[6]; [15],0
same,"Plant response rating, Wheat",[6]; [16],0
same,"Plant response rating, Wheat",[6]; [14],0
same,"Plant response rating, Foxtail, Giant",[7]; [11],0
same,"Plant response rating, Foxtail, Giant",[7]; [15],20
same,"Plant response rating, Foxtail, Giant",[7]; [16],0
same,"Plant response rating, Foxtail, Giant",[7]; [14],70
same,"Sedge, Umbrella plant response rating",[8],0
same,Ducksalad plant response rating,[9],0
same,Barnyardgrass plant response rating,[10],0
same,Rice plant response rating,rice (Oryza sativa),0
"Clc1cnc(Oc2ccccc2-c2cc(Br)no2)nc1 [Compound 12, 2-[2-(3-bromo-5-isoxazolyl)phenoxy]-5-chloropyrimidine]",pest or weed control at 1000 g/ha,[1]; [17],30%
same,pest or weed control at 1000 g/ha,[1]; [18],0%
same,pest or weed control at 1000 g/ha,[2]; [17],100%
same,pest or weed control at 1000 g/ha,[2]; [18],90%
same,pest or weed control at 1000 g/ha,[3]; [17],90%
same,pest or weed control at 1000 g/ha,[3]; [18],70%
same,"Corn plant response rating (crop injury, 0 = no effect, 100 = complete kill) at 1000 g/ha",corn (Zea mays); [17],0%
same,"Corn plant response rating (crop injury, 0 = no effect, 100 = complete kill) at 1000 g/ha",corn (Zea mays); [18],0%
same,pest or weed control at 1000 g/ha,[4]; [17],40%
same,pest or weed control at 1000 g/ha,[4]; [18],20%
same,pest or weed control at 1000 g/ha,[5]; [17],30%
same,pest or weed control at 1000 g/ha,[5]; [18],80%
same,plant injury at 1000 g/ha,[6]; [17],10%
same,plant injury at 1000 g/ha,[6]; [18],0%
same,pest or weed control at 1000 g/ha,[7]; [17],40%
same,pest or weed control at 1000 g/ha,[7]; [18],90%
same,pest or weed control at 250 g/ha,"[8]; Cyperus difformis, read-out: Sedge, Umbrella plant response rating",0%
same,pest or weed control at 250 g/ha,"[9]; Heteranthera limosa, read-out: Ducksalad plant response rating",40%
same,pest or weed control at 250 g/ha,"[10]; Echinochloa crus-galli, read-out: Barnyardgrass plant response rating",10%
same,plant injury at 250 g/ha,"rice (Oryza sativa); Oryza sativa, read-out: Rice plant response rating",0%
Clc1cnc(Oc2ccccc2-c2nccc(Cl)n2)nc1 [Compound 18],"Plant response rating, Morningglory",[1]; [11],0
same,"Plant response rating, Morningglory",[1]; [15],0
same,"Plant response rating, Morningglory",[1]; [16],0
same,"Plant response rating, Morningglory",[1]; [19],0
same,"Plant response rating, Pigweed",[2]; [11],0
same,"Plant response rating, Pigweed",[2]; [15],0
same,"Plant response rating, Pigweed",[2]; [16],0
same,"Plant response rating, Pigweed",[2]; [19],30
same,"Plant response rating, Velvetleaf",[3]; [11],0
same,"Plant response rating, Velvetleaf",[3]; [15],0
same,"Plant response rating, Velvetleaf",[3]; [16],0
same,"Plant response rating, Velvetleaf",[3]; [19],0
same,"Plant response rating, Corn",corn (Zea mays); [11],0
same,"Plant response rating, Corn",corn (Zea mays); [15],0
same,"Plant response rating, Corn",corn (Zea mays); [16],0
same,"Plant response rating, Corn",corn (Zea mays); [19],0
same,"Plant response rating, Barnyardgrass",[4]; [11],0
same,"Plant response rating, Barnyardgrass",[4]; [15],0
same,"Plant response rating, Barnyardgrass",[4]; [16],0
same,"Plant response rating, Barnyardgrass",[4]; [19],0
same,"Plant response rating, Crabgrass, Large",[5]; [11],0
same,"Plant response rating, Crabgrass, Large",[5]; [15],0
same,"Plant response rating, Crabgrass, Large",[5]; [16],0
same,"Plant response rating, Crabgrass, Large",[5]; [19],20
same,"Plant response rating, Wheat",[6]; [11],0
same,"Plant response rating, Wheat",[6]; [15],0
same,"Plant response rating, Wheat",[6]; [16],0
same,"Plant response rating, Wheat",[6]; [19],0
same,"Plant response rating, Foxtail, Giant",[7]; [11],0
same,"Plant response rating, Foxtail, Giant",[7]; [15],0
same,"Plant response rating, Foxtail, Giant",[7]; [16],0
same,"Plant response rating, Foxtail, Giant",[7]; [19],10
same,"Sedge, Umbrella plant response rating",[8],0
same,Ducksalad plant response rating,[9],0
same,Barnyardgrass plant response rating,[10],0
same,Rice plant response rating,rice (Oryza sativa),0
